The values below come from paper PMC9605770, “Molecular docking and antihypertensive effects of a novel angiotensin-I converting enzyme inhibitory peptide from yak bone” (Frontiers in Nutrition, 2022).

The nature of data set [1]: In vitro gastrointestinal digestion of the peptide. Format: in vitro ADME. Here is the method:
Gastrointestinal digestion was evaluated according to the method of Dang et al. ([15]) and Mulet-Cabero et al. ([18]) with minor modification. Simulated gastric juice (pH 2.0) and simulated intestinal fluid mixture (pH 7.6) were added to peptide solution and incubated at 37°C for 2 h, respectively.

Another data set concerns ACE. Conditions: read-out: IC50 of ACE inhibition, cited from earlier work. The source says: Therefore, it was meaningful to study the ACE inhibitory activity of SASVIPVSAVRA. || Generally, the presence of amino acids (Val, Ile) with hydrophobic branches would increase the ACE inhibitory activity ([26]). Therefore, the Val residue and Ile residue in SASVIPVSAVRA may contribute to the ACE activity of the peptide. […] The peptide SASVIPVSAVRA isolated from the yak bone hydrolysate also contained the tripeptide above-mentioned (VIP). The ACE inhibitory activity may also be due to the presence of ACE inhibitor VIP in its structure. Howev ...

The subject of data set [2] is spontaneously hypertensive rats (SHRs). The experiment in a line: Antihypertensive effect in SHRs (tail-cuff SBP). Format: in vivo, rat. Conditions: oral, positive control group, 10 mg/kg BW, n = 6 per group. As to the method: The systolic blood pressure (SBP) changes in the SHRs were measured by the tail-cuff method to determine the antihypertensive effect of ser-ala-ser-val-ile-pro-val-ser-ala-val-arg-ala (SASVIPVSAVRA) in vivo. Twenty female SHRs, weighing 230 ± 15 g and the SBP exceeding 190 mmHg, were obtained from Beijing Vital River Laboratory Animal Technology Co., Ltd. (China).
The SHRs were free to eat and drink at 25 ± 4°C and a 40 ± 6% humidity. To get the rats to adapt to the environment, the systolic blood pressure was measured once a day for 1 week. After a week of adaptation, the SHRs were randomly divided into three groups with each group containing 6 SHRs: the control group (sterilized water), captopril group (10 mg/kg captopril BW), SASVIPVSAVRA (30 mg/kg SASVIPVSAVRA BW). The effect of ACE inhibitors on SBP were measured by the Softron BP non-invasive blood pressure monitor (Softron BP-2000, Tokyo, Japan) at 0, 2, 4, and 6 h after oral administration ([1]), The measurements were repeated five times, the recordings were reported as mean ± standard deviation (SD). All animal procedures used in this trial were approved by the Institutional Animal Care and Use Committee of Hangzhou Medical College (Approval No. ZJCLA-IACUC-20010014).

Data set [3] has as its target T1, angiotensin-converting enzyme (ACE) (UniProt P12822).
T1 sequence: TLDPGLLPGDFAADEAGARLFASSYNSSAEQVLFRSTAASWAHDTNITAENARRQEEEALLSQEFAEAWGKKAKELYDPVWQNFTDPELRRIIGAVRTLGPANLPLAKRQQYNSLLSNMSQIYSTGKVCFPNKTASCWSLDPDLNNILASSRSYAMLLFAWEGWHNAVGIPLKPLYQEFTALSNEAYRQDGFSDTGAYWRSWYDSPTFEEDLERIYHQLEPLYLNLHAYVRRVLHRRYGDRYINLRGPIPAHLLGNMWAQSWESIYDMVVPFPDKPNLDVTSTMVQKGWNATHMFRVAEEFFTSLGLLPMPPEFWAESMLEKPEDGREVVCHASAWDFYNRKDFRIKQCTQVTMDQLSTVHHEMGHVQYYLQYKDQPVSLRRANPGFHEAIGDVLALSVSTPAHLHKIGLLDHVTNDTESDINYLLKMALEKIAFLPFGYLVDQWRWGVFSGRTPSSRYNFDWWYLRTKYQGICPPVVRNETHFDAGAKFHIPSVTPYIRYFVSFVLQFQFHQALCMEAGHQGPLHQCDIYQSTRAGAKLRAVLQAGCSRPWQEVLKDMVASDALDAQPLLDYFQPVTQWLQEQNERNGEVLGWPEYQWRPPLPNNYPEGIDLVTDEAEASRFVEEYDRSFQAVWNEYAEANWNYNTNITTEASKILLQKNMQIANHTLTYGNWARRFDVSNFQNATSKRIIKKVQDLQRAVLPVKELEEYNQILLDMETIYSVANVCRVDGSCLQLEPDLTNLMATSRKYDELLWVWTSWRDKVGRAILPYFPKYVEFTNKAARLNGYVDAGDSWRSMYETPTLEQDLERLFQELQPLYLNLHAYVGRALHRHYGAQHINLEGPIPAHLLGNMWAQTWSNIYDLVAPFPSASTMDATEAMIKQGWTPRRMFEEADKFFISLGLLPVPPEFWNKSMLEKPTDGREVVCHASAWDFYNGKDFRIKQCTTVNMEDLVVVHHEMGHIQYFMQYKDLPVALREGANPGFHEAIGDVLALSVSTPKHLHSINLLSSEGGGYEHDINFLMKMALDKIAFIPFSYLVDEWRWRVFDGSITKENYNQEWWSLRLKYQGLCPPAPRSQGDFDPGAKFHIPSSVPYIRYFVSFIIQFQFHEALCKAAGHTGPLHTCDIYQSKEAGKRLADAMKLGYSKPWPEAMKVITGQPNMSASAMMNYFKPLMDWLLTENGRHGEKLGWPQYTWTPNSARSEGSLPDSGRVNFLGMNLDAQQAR

Like-named read-outs stand apart in the source and are kept apart here. Where a SMILES comes first, the peptide text is derived from it.

`CC[C@H](C)[C@H](NC(=O)[C@@H](NC(=O)[C@H](CO)NC(=O)[C@H](C)NC(=O)[C@@H](N)CO)C(C)C)C(=O)N1CCC[C@H]1C(=O)N[C@H](C(=O)N[C@@H](CO)C(=O)N[C@@H](C)C(=O)N[C@H](C(=O)N[C@@H](CCCNC(=N)N)C(=O)N[C@@H](C)C(=O)O)C(C)C)C(C)C` [SASVIPVSAVRA, ser-ala-ser-val-ile-pro-val-ser-ala-val-arg-ala] (H-SASVIPVSAVRA-OH): the “Digestive stability (peak of parent peptide in digested samples)” value in data set [1] (simulated gastric juice pH 2.0 and simulated intestinal fluid pH 7.6, 37°C, 2 h each, MS (TIC chromatography)) was “easily digested”.

Consider IVVE, for which the IC50 (usually the concentration needed to halve the response being measured) with ACE (reported peptides) was 315 µM.

As to `CC[C@H](C)[C@H](NC(=O)[C@@H](NC(=O)[C@H](CO)NC(=O)[C@H](C)NC(=O)[C@@H](N)CO)C(C)C)C(=O)N1CCC[C@H]1C(=O)N[C@H](C(=O)N[C@@H](CO)C(=O)N[C@@H](C)C(=O)O)C(C)C` [SASVIPVSA] (H-SASVIPVSA-OH), the “Metabolite found in the digestion sample” value in data set [1] (digestion of SASVIPVSAVRA, simulated gastric juice pH 2.0 and intestinal fluid pH 7.6, 37°C, peak area by MS) is given as “main metabolite”.

In the case of QLLLQQ, in the data set on ACE (reported peptides), the IC50 was 75 µM.

For the molecule `C[C@H](CS)C(=O)N1CCC[C@H]1C(=O)O` [captopril], the “Maximum reduction of systolic blood pressure” value in data set [2] is recorded as 14.9%.

Take SGGSYADELVSTAK: the IC50 in the data set with ACE (reported ACE peptide) was 0.093 µM.

B1: ser-ala-ser-val-ile-pro-val-ser-ala-val-arg-ala (…) (peptide)
peptide: SASVIPVSAVRA
In data set [3], B1 registered an IC50 of ACE inhibitory activity (substrate HHL, HEPES buffer with 300 mM NaCl, pH 8.3, 37°C, HPLC) of 54.2 μM.
